Biological target: T1, GPR40 (Homo sapiens, UniProt O14842)
T1 construct: expressed in transfected cells; host or cells: HEK293 cells stably expressing GPR40 (Hygromycin selection)
Test: IP1 accumulation assay in HEK293 cells stably expressing GPR40
Type: cell-based
Procedure, shortened: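 HEK293 cells stably expressing human GPR40 were incubated with compounds (10-point, 3-fold dilution series) for 2 h at 37 °C, then IP1 was detected by HTRF (665/615 nm ratio). Effect was normalised to DMSO blank and AMG-1638 as 100%, and EC50 was derived from dose curves.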

[1] = IP1 accumulation, HEK293 cells stably expressing GPR40, 2 hours at 37° C., % effect relative to AMG-1638, table of Biological Example 1
[2] = Tables A-1a to A-7b (structure-property relationship), obtained by methods of Biological Example 1

T1 sequence (O14842 whole entry): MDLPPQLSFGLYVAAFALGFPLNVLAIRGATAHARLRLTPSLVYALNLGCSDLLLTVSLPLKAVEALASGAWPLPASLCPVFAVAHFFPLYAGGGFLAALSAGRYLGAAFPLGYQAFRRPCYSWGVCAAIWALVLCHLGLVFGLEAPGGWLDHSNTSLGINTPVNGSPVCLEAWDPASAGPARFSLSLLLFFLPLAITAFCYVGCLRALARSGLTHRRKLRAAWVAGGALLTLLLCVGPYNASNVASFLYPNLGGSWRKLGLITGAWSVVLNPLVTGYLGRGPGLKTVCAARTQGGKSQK

| SMILES | EC50 [1] | EC50 [2] |
| --- | --- | --- |
| COc1ccc(C(=O)N(CC(C)(C)CCCCCCn2cc(CCCCCCC(=O)NCCC[N+](C)(CC(=O)[O-])CC(=O)O)nn2)c2cccc(C)n2)c(N2CCC(COc3cc([C@@H](CC(=O)O)C4CC4)ccn3)CC2)c1 (stereo partly shown) [Example 212] | 143 nM |  |
| COc1ccc(F)c(-c2ccc(COc3cccc([C@@H](CC(=O)O)C4CC4)c3)cc2CC(C)(C)Cn2cc(CCCCC(=O)NCCC[N+](C)(CC(=O)[O-])CC(=O)O)nn2)c1 (stereo partly shown) [Example 213] | 358 nM |  |
| COc1ccc(C(=O)N(CC(C)(C)CCn2cc(CCCCCCCCC(=O)NCCCN(CC(=O)O)CC(=O)O)nn2)c2cccc(C)n2)c(N2CCC(COc3cc([C@@H](CC(=O)O)C4CC4)ccn3)CC2)c1 [Example 215] | 1360 nM | 1360 nM |
| COc1ccc(C(=O)N(CC(C)(C)CCn2cc(CCCCCCCCC(=O)NCCC[N+](C)(CC(=O)[O-])CC(=O)O)nn2)c2cccc(C)n2)c(N2CCC(COc3cc([C@@H](CC(=O)O)C4CC4)ccn3)CC2)c1 (stereo partly shown) [Example 217] | 683 nM | 683 nM |
| COc1ccc(F)c(-c2ccc(COc3cccc([C@@H](CC(=O)O)C4CC4)c3)cc2CC(C)(C)Cn2cc(CCCCC(=O)NCCN(CCC(=O)NCCN)CCC(=O)NCCN)nn2)c1 [Example 219] | > 10000 nM |  |
| COc1ccc(F)c(-c2ccc(COc3cccc([C@@H](CC(=O)O)C4CC4)c3)cc2CC(C)(C)Cn2cc(CCCCCCCCC(=O)NCCN(CCC(=O)NCCN)CCC(=O)NCCN)nn2)c1 [Example 220] | > 10000 nM | > 10000 nM |

These reach a lower EC50 [1]. Values come first.

| EC50 [1] | EC50 [2] | SMILES |
| --- | --- | --- |
| 0.54 nM |  | COc1ccc(C(=O)N(CC(C)(C)CCCCCCn2cc(CCCCCCCCCCCCCC(=O)NCCC[N+](C)(CC(=O)[O-])CC(=O)O)nn2)c2cccc(C)n2)c(N2CCC(COc3cc([C@@H](CC(=O)O)C4CC4)ccn3)CC2)c1 (stereo partly shown) [Example 210] |
| 66.3 nM |  | COc1ccc(C(=O)N(CC(C)(C)CCCCCCn2cc(CCCCC(=O)NCCC[N+](C)(CC(=O)[O-])CC(=O)O)nn2)c2cccc(C)n2)c(N2CCC(COc3cc([C@@H](CC(=O)O)C4CC4)ccn3)CC2)c1 (stereo partly shown) [Example 211] |
| 0.48 nM | 0.48 nM | COc1ccc(C(=O)N(CC(C)(C)CCn2cc(CCCCCCCCCCCCCCCC(=O)NCCCN(CC(=O)O)CC(=O)O)nn2)c2cccc(C)n2)c(N2CCC(COc3cc([C@@H](CC(=O)O)C4CC4)ccn3)CC2)c1 [Example 216] |
| 0.44 nM | 0.44 nM | COc1ccc(C(=O)N(CC(C)(C)CCn2cc(CCCCCCCCCCCCCCCC(=O)NCCC[N+](C)(CC(=O)[O-])CC(=O)O)nn2)c2cccc(C)n2)c(N2CCC(COc3cc([C@@H](CC(=O)O)C4CC4)ccn3)CC2)c1 (stereo partly shown) [Example 218] |
| 0.98 nM |  | COc1ccc(C(=O)N(CC(C)(C)CCn2cc(CCCCCCCCC=CCCCCCCCCC(=O)NCCC[N+]34CCN(CC3)CC4)nn2)c2cccc(C)n2)c(N2CCC(COc3cc([C@@H](CC(=O)O)C4CC4)ccn3)CC2)c1 [Example 221] |

From patent US20250223281A1, “ANTIDIABETIC COMPOUNDS AND COMPOSITIONS” (REZUBIO PHARMACEUTICALS CO., LTD, priority 2022, published 2025)
